Results: patent US20220386611A1, “NOVEL HETEROARYL-TRIAZOLE COMPOUNDS AS PESTICIDES” (Bayer Aktiengesellschaft, priority 2019, published 2022)

Assays:
Format in all cases: in vivo
[1] = test system: green peach aphid (Myzus persicae); assay: Myzus persicae spray test; details: foliar, 120 h, after 5 days, Chinese cabbage leaf disks
Method in brief: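 Chinese cabbage leaf disks infested with all instars of Myzus persicae were sprayed with compound formulated in acetone/dimethylformamide and diluted in water containing 1000 ppm emulsifier. Percent mortality was scored after 5 days.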

[2] = test system: larvae of the banded cucumber beetle (Diabrotica balteata); assay: Diabrotica balteata spray test; details: 168 h, 100 g/ha (=32 μg/well), after 7 days, wheat seeds, read-out: efficacy (seedlings grown like untreated, uninfected control)
Method in brief: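 Germinated wheat seedlings sprayed with compound in acetone/DMF with emulsifier-containing water, then infested with 10-20 Diabrotica balteata larvae per unit. Efficacy scored after 7 days as seedling growth relative to untreated, uninfested control (100%) versus no growth (0%).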

[3] = test system: Rhipicephalus microplus larvae (strain Parkhurst, resistant against synthetic pyrethroids); assay: Rhipicephalus (Boophilus) microplus in-vitro contact test, larval cattle tick; details: 5 μg/cm^2 (=500 g/ha), after 48 hours, read-out: efficacy (larvae dead or moribund)
Method in brief: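 Compound in acetone coated on glass tube inner walls; 900 ppm gives 5 μg/cm^2. Pyrethroid-resistant Parkhurst larvae (20-50 per tube) held at 27 °C, 85% relative humidity. Efficacy scored after 48 h from loss of negative geotaxis; 100% means all larvae dead or moribund.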

[4] = test system: Blattella germanica strain PAULINIA; assay: Blattella germanica test (BLTTGE surface treatment & contact assay); details: surface concentration 20 mg/m^2, 30 minutes exposure, 24 hours after contact, read-out: efficacy (mortality)
Method: Blattella germanica Test (BLTTGE Surface Treatment & Contact Assay)
Solvent: Aceton+2000 ppm rapeseed oil methyl ester (RME)
In order to produce a sufficient, active ingredient containing solution it is necessary to solve the test compound in the solvent-mix (acetone at 2 mg/ml/RME 2000 ppm). This solution is pipetted onto a glazed tile and after evaporation of the acetone, adult animals of the species Blattella germanica strain PAULINIA are placed onto the dried surface. The exposure time is 30 minutes. Mortality in percent (%) is determined 24 hours after contact of the insects to the treated surface. 100% mortality means that all tested insects are dead, whereas 0% means that no insect died.

[5] = test system: adult engorged female ticks (Rhipicephalus microplus); assay: Rhipicephalus (Boophilus) microplus injection test; details: 168 h, after 7 days, read-out: efficacy (infertile eggs); for pest or weed control at 0.004 mg: 4 μg/animal
Method in brief: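 Five adult engorged female ticks injected into the abdomen with 1 μL compound solution in DMSO, then held in a climate chamber. Fertile egg deposition assessed after 7 days, unclear eggs kept until hatching (about 42 days); efficacy 100% = all eggs infertile, 0% = all fertile.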

[6] = test system: cattle ticks (Rhipicephalus microplus) strain Parkhurst, SP-resistant; assay: Rhipicephalus (Boophilus) microplus dip test; details: 100 ppm, after 7 days
Method: Rhipicephalus (Boophilus) microplus—Dip Test
Test animal: cattle ticks (Rhipicephalus microplus) strain Parkhurst, SP-resistant
Solvent: dimethyl sulfoxide
To produce a suitable preparation of active compound, 10 mg of active compound are dissolved in 0.5 mL solvent, and the concentrate is diluted with water to the desired concentration.
This compound solution is pipetted into tubes. 8-10 engorged, adult, female cattle ticks (Rhipicephalus microplus) are placed in perforated tubes. These tubes are immersed in the aqueous compound solution until the ticks are completely moistened. After the liquid has drained off, the ticks are transferred to a filter paper in a plastic tray and stored in a climate chamber.
After 7 days egg deposition of fertile eggs is monitored. Eggs where fertility is not visible are stored in a climate chamber till hatching after about 42 days. An efficacy of 100% means all eggs are infertile; 0% means all eggs are fertile.

Structure (SMILES)	mortality at 100 g/ha [1] [%]	pest or weed control at 32 µg/disc, 100 g/ha [2] [%]	pest or weed control at 5 µg/cm2 [3] [%]	mortality at 20 mg/m2 [4] [%]	pest or weed control at 0.004 mg [5] [%]	efficacy (infertile eggs) [6] [%]	pest or weed control at 0.02 mg ([5]; 20 μg/animal) [%]
CC(NC(=O)c1cc(C(F)(F)F)cc(C(F)(F)F)c1)c1nc(I)nn1-c1ncccn1 (centres unmarked) [Example I-021]	90	100	100	80 to 100	–	–	–
CC(NC(=O)c1cc(C(F)(F)F)cc(C(F)(F)F)c1)c1nc(Br)nn1-c1ncccn1 (centres unmarked) [Example I-010]	90	80	100	–	100	–	–
CC(NC(=O)c1cc(C(F)(F)F)cc(C(F)(F)F)c1)c1nc(Cl)nn1-c1ncccn1 (centres unmarked) [Example I-002]	–	100	100	80 to 100	100	80	100
